# From patent US10745408B2, “Biologically active taxane analogs and methods of treatment by oral administration” (Tapestry Pharmaceuticals, Inc., priority 2007, dated 2020)
# Entries after “also recorded” stand apart in the source; their conditions may differ.
# Legend:
# DU145 = experiment: MTS proliferation assay, prostate DU145; type: cell-based; conditions: Homo sapiens, DU-145
# Procedure: (§1) MTS Proliferation Assay (Promega)
# (§2) Day 1: Cells were plated in appropriate growth medium at 5×10^3 per well in 100 ul in 96 well tissue culture plates, Falcon, one for each drug to be tested. Col 1 was blank; it contained no cells, just medium. The plates were incubated overnight at 37° C., 5% CO2 to allow attachment.
# (§3) Day 2: Added 120 ul growth medium in wells of 96-well “dilution plates” (one for each drug) and let sit in 37° C. incubator for about 1 hr.
# (§4) Thawed DMSO drug stocks (usually at 10 mM). Each drug was diluted 6 ul into a tube with 3 ml growth medium, to 20 μM.
# (§5) Aspirated medium from col 12 of a dilution plate; added 200-300 ul of 20 uM drug to wells of col 12. Made serial dilution down this 96-well plate: for a […] dilution pattern, moved 60 ul from col 12 to col 11, mixed 4-5 times (using 8 place multi-pipettor), moved 60 ul to col 10, etc. stopping at col 3.
# (§6) Moved 100 ul of medium+drug from dilution plate to a cell plate, i.e. col 1 from drug plate (blank=no cells) to col 1 of cell plate, etc. up to col 12. Col 2 contained cells with no drug. […]
# (§7) Day 4 or 5: Terminated the assay 48 to 72 hrs after drug addition. […] When the color turned dark in control wells (col 2), and was still light in col 12, the absorbance at 490 nm was read on a plate reader; the results were used to calculate IC50.
# [1] = Injection formulation administered IV and orally: mouse PK parameters; type: in vivo; conditions: for half-life: read-out: t ½ (converted)
# KB = experiment: MTS proliferation assay, head/neck KB; type: cell-based; conditions: Homo sapiens
# Procedure: as §1, §2, §3, §4, §5, §6, §7
# [2] = S-(1) pharmacokinetics in mouse, plasma and brain levels after single IV dose; type: in vivo, CD-1 mice; conditions: single IV 20 mg/kg; for AUC(0-inf) / AUC(0-t) / Cmax / MRT: CD-1, mouse
# Procedure: S-(1) Pharmacokinetic Data in Mouse Model:
# The formulated drug was administered as a single IV bolus via tail vein injection.
# Sample Collection timing: Terminal blood (plasma) and brain specimens were collected at 9 times post-dose, with 4 mice per sample time. Sample collection times: 5, 15 min., 2, 8, 24, 32, 48, 72 and 96 hr post-dose (4 mice per sample time).
# Blood collection: A terminal blood sample was collected from each mouse via cardiac puncture. The whole blood was collected on wet ice, spun down immediately (at 4° C.), and plasma stored frozen at −20° C. until analysis. The anticoagulant used was K2EDTA. Brain Sample Collection: Whole brains were removed by dissection. Brains were collected on wet ice, weighed, and stored at −20° C.
# [3] = Central nervous system (CNS) safety study in rats; type: in vivo, male Sprague Dawley rats
# Procedure: Toxicology. Central Nervous System (CNS) Safety Study in Rats:
# This study was conducted at ClinTrials BioResearch (CTBR, Montreal, Quebec, Canada) as a GLP study.
# All animals were observed twice daily for signs of ill health or reaction to treatment, except on day of arrival and necropsy. A Functional Observation Battery (FOB) assessment, along with grip strength, hind limb splay and body temperature measurements were performed for all animals once pre-dose and at approximately 15 minutes, 1 hour, 4 hours, 8 hours and 24 hours post-dose. After the last observation, all animals were euthanized without further examination.
# human tumor xenografts = experiment: Human tumor xenografts in nude mice (efficacy and MTD studies); type: in vivo
# [4] = as above; type: in vivo; conditions: mouse, in vivo, po; nude mice, from efficacy and MTD studies; read-out: apparent oral bioavailability
# FADU = experiment: MTS proliferation assay, head/neck FADU; type: cell-based; conditions: Homo sapiens
# Procedure: as §1, §2, §3, §4, §5, §6, §7
# [5] = Phase 1 Study S-(1)-02 plasma pharmacokinetics (every 21 days); type: in vivo, human; conditions: for half-life / AUC(0-t): human, plasma; for AUC(0-t): read-out: AUC0-24
# Source text: Both trials have enrolled patients with advanced solid tumors, non-Hodgkin's lymphoma or Hodgkin's lymphoma that have recurred or progressed following at least standard therapy; patients with malignancies for which there is no standard therapy; patients who are not candidates for standard therapy; or patients who have chosen not to pursue standard therapy. […] Study S-(1)-01 is currently being conducted in the United States. […] Study S-(1)-02 is currently being conducted in the United States and in Israel.
# Plasma pharmacokinetics of S-(1) were assessed following the first dose of S-(1) in both studies. Plasma samples were analyzed for S-(1) using a validated LC/MS-MS method.
# HT29 = experiment: MTS proliferation assay, colon HT29; type: cell-based; conditions: Homo sapiens, HT-29
# Procedure: as §1, §2, §3, §4, §5, §6, §7
# SKNAS = experiment: MTS proliferation assay, neuroblastoma SKNAS; type: cell-based; conditions: Homo sapiens, SK-N-AS
# Procedure: as §1, §2, §3, §4, §5, §6, §7
# [6] = mouse, in vivo, Oral 10 mg/kg, injection formulation
# [7] = 56 mg/m^2 i.v., first dose, 15:85 Cremophor EL-P/ethanol formulation
# [8] = 84 mg/m^2 i.v., first dose, 15:85 Cremophor EL-P/ethanol formulation
# [9] = 126 mg/m^2 i.v., first dose, 15:85 Cremophor EL-P/ethanol formulation
# [10] = 185 mg/m^2 i.v., first dose, 15:85 Cremophor EL-P/ethanol formulation
compound,measurement,setting,value
C=C[C@H]1O[C@H]2C[C@H]3OC[C@@]3(OC(C)=O)[C@H]3[C@H](OC(=O)c4ccccc4)[C@]4(C(C)(C)O)CC(OC(=O)[C@H](O)C(CC(C)C)NC(=O)OC(C)(C)C)C(C)=C4[C@H](OC(C)=O)[C@H](O1)[C@]23C (stereo partly drawn) [S-(1)],IC50,DU145,60 nM
same,F,[1]; Oral 10 mg/kg vs IV 10 mg/kg,47%
same,AUC(0-inf),"[1]; mouse, in vivo, IV 10 mg/kg",7.74 µM·h
same,AUC(0-t),"[1]; mouse, in vivo, IV 10 mg/kg",6.3 µM·h
same,clearance,"[1]; mouse, in vivo, IV 10 mg/kg",24.8 mL/min/kg
same,Vd,"[1]; mouse, in vivo, IV 10 mg/kg, read-out: Vdss",13.3 L/kg
same,half-life,"[1]; mouse, in vivo, IV 10 mg/kg",6.1 h
same,AUC(0-inf),[1]; [6],3.61 µM·h
same,AUC(0-t),[1]; [6],3.43 µM·h
same,Cmax,[1]; [6],460 nM
same,Tmax,[1]; [6],6 h
same,half-life,[1]; [6],5.1 h
same,IC50,KB,9.4 nM
same,AUC(0-inf),[2]; Brain,88700 ng·h/mL
same,AUC(0-t),[2]; Brain,65000 ng·h/mL
same,Cmax,[2]; Brain,3730 ng/mL
same,MRT,[2]; Brain,42.5 h
same,AUC(0-inf),[2]; Plasma,17000 ng·h/mL
same,AUC(0-t),[2]; Plasma,16900 ng·h/mL
same,Cmax,[2]; Plasma,1550 ng/mL
same,MRT,[2]; Plasma,17.6 h
same,blood-brain barrier passage,[2]; mouse model,not impeded by the blood-brain barrier
same,deaths or treatment-related clinical signs,"[3]; single intravenous 6.25, 12.5 or 25 mg/kg",no deaths or treatment-related clinical signs
same,"biological effect on central nervous system (FOB, grip strength, hind limb splay, body temperature)","[3]; single intravenous 6.25, 12.5 or 25 mg/kg, 15 minutes, 1, 4, 8 and 24 hours post-dose",no biological effects
same,no adverse effect level,[3]; single intravenous injection,25 mg/kg
same,efficacy in mouse xenografts,human tumor xenografts; dosed either oral or iv,shows efficacy
same,antitumor activity against multiple human tumor xenografts,human tumor xenografts; including xenografts that expressed mdr-1 and were resistant to other taxanes,demonstrated antitumor activity; also recorded: suppressed the growth
same,bioavailability,[4],40 to 80%
same,IC50,FADU,21 nM
same,Cl,[5]; [7],18.9 ± 9.53 L/hr/m^2
same,Vss,[5]; [7],232 ± 93.6 L/m^2
same,Cl,[5]; [8],15.4 L/hr/m^2
same,Vss,[5]; [8],300 L/m^2
same,Cl,[5]; [9],22.1 ± 11.2 L/hr/m^2
same,Vss,[5]; [9],166 ± 105 L/m^2
same,t1/2,[5]; [9],6.27 ± 3.64 h
same,Cl,[5]; [10],24.7 ± 12.2 L/hr/m^2
same,Vss,[5]; [10],215 ± 116 L/m^2
same,half-life,"[5]; intravenous, S-(1)-02 study, all dose groups, read-out: Plasma t1/2 values, range over dose groups",3.43 to 8.96 h
same,AUC(0-t),"[5]; iv, 56 mg/m2, 56 mg/m^2 i.v., first dose, 15:85 Cremophor EL-P/ethanol formulation",2530 ± 847 ng·h/mL
same,half-life,"[5]; iv, 56 mg/m2, 56 mg/m^2 i.v., first dose, 15:85 Cremophor EL-P/ethanol formulation, read-out: t1/2 (converted)",8.96 ± 7.09 h
same,AUC(0-t),"[5]; iv, 84 mg/m2, 84 mg/m^2 i.v., first dose, 15:85 Cremophor EL-P/ethanol formulation",3710 ng·h/mL
same,AUC(0-t),"[5]; iv, 126 mg/m2, 126 mg/m^2 i.v., first dose, 15:85 Cremophor EL-P/ethanol formulation",6110 ± 3030 ng·h/mL
same,half-life,"[5]; iv, 126 mg/m2, 126 mg/m^2 i.v., first dose, 15:85 Cremophor EL-P/ethanol formulation, read-out: t1/2 (converted)",10.6 ± 7.1 h
same,AUC(0-t),"[5]; iv, 185 mg/m2, 185 mg/m^2 i.v., first dose, 15:85 Cremophor EL-P/ethanol formulation",7260 ± 2620 ng·h/mL
same,half-life,"[5]; iv, 185 mg/m2, 185 mg/m^2 i.v., first dose, 15:85 Cremophor EL-P/ethanol formulation, read-out: t1/2 (converted)",3.43 ± 7.31 h
same,IC50,HT29,0.006 nM
same,IC50,SKNAS,11 nM
